As usually defined, the inhibition is the change of the read-out against control, counted positive when it falls.

Here are results for 18 compounds from patent publication US11603355B2, “Charged ion channel blockers and methods for use” (Nocion Therapeutics, Inc., priority 2019, dated 2023).

Data set [1] concerns the target T1, NaV1.7 (Homo sapiens, UniProt Q15858).
T1 construct: expressed in transfected cells; host or cells: HEK293 (tetracycline-inducible)
The data set can be described thus: Automated patch clamp (Qube 384), internal block of NaV1.7. The data set is classed as cell-based. Particulars: IC50, compound in internal solution, HEK293 cells, read-out: Nav1.7 Intracellular Inhibition. As to the method:
(§1) NaV1.7 was expressed in HEK293 cells upon induction with tetracycline. Cells were cultured in DMEM containing 10% dialyzed Fetal Bovine Serum (VWR, Radnor, Pa.), 1% Glutamax (VWR, Radnor, Pa.), 1% Penicillin-Streptomycin (VWR, Radnor, Pa.), 100 mg/L Hygromycin (Thermo Fisher Scientific, Waltham, Mass. and 5 mg/L Blasticidin (Alfa Aesar, Haverhill, Mass.). Cells were grown and maintained at 37° C. in a humidified environment containing 10% CO2 in air. Cells were detached from the culture flask for passage and harvested using 0.05% Trypsin-EDTA (Thermo Fisher Scientific, Waltham, Mass.). To induce NaV1.7, cells were induced with tetracycline (0.1-1 μg/mL, IBI Scientific, Peosta, Iowa) the day before recording.
Before experiments, cells were washed with DPBS (VWR, Radnor, Pa.), digested with Detachin (VWR Radnor, Pa.) and then triturated 10 times in CHO Serum-Free Media (VWR Radnor, Pa.) to resuspend the cells and to break apart cell aggregates. Cells were counted and the final concentration was set at 2-5 million cells per mL.
The intracellular solution contained the following: 140 mM CsF, 1 mM/5 mM EGTA/CsOH, 10 mM HEPES, 10 mM NaCl, adjusted to pH 7.3 with CsOH, and osmolality to 320 with OSM solution. The external solution contained the following: 145 mM NaCl, 4 mM KCl, 1 mM MgCl2, 2 mM CaCl2), 10 mM HEPES, 10 mM Glucose, adjusted to pH 7.4 with CsOH and osmolality to 305 with OSM solution. The OSM solution was a normal Ringer solution containing (in mM) NaCl 155, HEPES 10, sucrose, KCl 3.5, CaCl2) 1.5, MgCl2 1 adjusted to pH 7.4 with NaOH. All chemicals are from Sigma-Aldrich, St. Louis, Mo. In order to test the degree of internal block by test compounds, the compounds were dissolved in internal solution at the indicated test concentration. […] In order to test the degree of external block by test compounds the compounds were dissolved in external solution at the indicated test concentration.
Automated Patch Clamps were performed on Qube 384 (Sophion Bioscience, Woburn Mass.) with multihole Qchips at a temperature setting of 22 degrees. The whole cells configuration was formed with default Qube seal and break-in parameter. The membrane potential was held at −100 mV before the voltage protocol began. Two voltage protocols were followed.
Step 1: Cells were held at −100 mV with a depolarized pulse to −20 mV for 10 ms, the interval was set at 5 s. Currents were corrected by default leak subtraction from every pulse. The duration was set at 5 mins.
Step 2: Cells were held at −100 mV with a depolarized pulse to −20 mV for 10 ms. The frequency was 5 Hz. Currents were corrected by leak subtraction calculated before step 2. The duration was set at 4 mins.
After Step 2, the Qchip was removed from the recording chamber. The internal solution was changed with solutions containing test compounds. Qchips were held at −100 mV without pulsing after being replaced in the recording chamber. The total solution switching time was 8 minutes. After the internal solution exchange, Cells were recorded and step 2 for repeated for 10 minutes.
Data analysis was performed by Sophion Analyzer. Cells were filtered with minimum 50 MOhm seal resistance and minimum 5 nA starting current. The rundown of the currents was corrected with control cells (Non-Drug). The remaining was calculated by averaging last 3 points in the end of experiments. The base line was calculated as the average of last 3 points of Step 2.
IC50 curves were plotted with DR-plots/Hill function (a dose-response plot with a Hill fit).
Representative examples of the invention were tested for intracellular inhibition of NaV 1.7 in the automated patch clamp assay. Activity Range is reported as IC50: “++++” (<0.3 μM), “+++” (0.3-1 μM), “++” (1-3 μM) or “+” (3-10 μM).
(In general: The patch-clamp technique gives a direct electrical read-out from membranes.)

In data set [2] the target is T1, NaV1.7. In words: Manual patch clamp, internal block of NaV1.7 current. The data set is classed as cell-based. The conditions noted are these: compound in internal solution, HEK293 cells, read-out: Nav1.7 Intracellular Inhibition; for inhibition at 10 µM: % inhibition at 10 μM test concentration; for inhibition at 3 µM: % inhibition at 3 μM test concentration. As to the method:
Representative compounds of the invention were synthesized according to the described methods and tested for the ability to inhibit voltage-gated sodium channels.
as §1, with “recording and plated onto 24-well plates. Cells were washed with DPBS (VWR, Radnor, Pa.), trypsinized and then triturated five times in 10 mL of growth media to break apart cell aggregates. For one 24-well plate, 2 mL of cell suspension was mixed with 23 mL of fresh growth media and 0.1-1 μg/mL tetracycline added. 1 ml of mixed media with cells was then added to each well of a 24-well plate, with a 12 mm coverslip already placed in the bottom of the well. Cells were then incubated in 37° C. and 10% CO2 overnight.” for “recording.”
The intracellular solution contained the following (in mM) CsCl 135, NaCl 10, EGTA 10, HEPES 10, MgCl2 2, adjusted to pH 7.2 with CsOH. The external solution was a normal Ringer solution containing (in mM) NaCl 155, HEPES 10, glucose 10, KCl 3.5, CaCl2 1.5, MgCl2 1 adjusted to pH 7.4 with NaOH. CsCl is from Alfa Aesar, Haverhill, Mass. All other chemicals are from Sigma-Aldrich, St. Louis, Mo. In order to test the degree of internal block by test compounds the compounds were dissolved in internal solution at the indicated test concentration. […] In order to test the degree of external block by test compounds the compounds were dissolved in external solution at the indicated test concentration.
18-24 hours after cells were induced with tetracycline, coverslips were placed into a chamber filled with Normal Ringer solution at room temperature and the chamber placed on a microscope. Pipettes were pulled from borosilicate glass on a P97 puller (Sutter Instrument, Novato, Calif.) and polished with a MF-830 Microforge (Narishige International USA, Inc., Amityville, N.Y.) to have a resistance of 1.5-2.5 MΩ when filled with CsCl internal solution at room temperature. Healthy cells (those that are round and translucent with no visible blemishes) were chosen for seal formation. A seal was formed between the pipette and the cell, and a brief pulse of suction was used to “break in” and establish the whole-cell configuration. The membrane potential was held at −100 mV before the voltage protocol began. Only cells with series resistance between 1.5-5 MΩ were retained for analysis. The voltage protocol was as follows: Cells were held at −100 mV for 12 ms followed by a hyperpolarizing step to −105 mV for 12 ms to monitor the leak. Cells were then stepped back to −100 mV for 40 ms. Cells were then depolarized to −20 mV for 10 ms and then returned to −100 mV for 26 ms.
Once the recording was started, the voltage protocol was run at 30 second intervals for 5 minutes to get a stable baseline. This was followed by four 30-second periods of 5 Hz stimulation of the same voltage protocol separated by 1 minute of rest which was then followed by 0.33 Hz stimulation after the last train. Currents were recorded using PatchMaster software with Heka EPC10 (HEKA Electronics, Lambrecht, Germany). Only cells with inward current amplitudes at −20 mV between 400 pA and 4 nA were accepted. In addition, cells having leak currents greater than 10% of their current amplitudes were discarded. […]

A short description of data set [3]: PAMPA membrane permeability assay. Type of data set: in vitro ADME. Particulars: permeability coefficient, pH 7.4 buffer, GIT lipid, 4 hours incubation. Here is the method: The PAMPA assay (pION, Inc., Woburn Mass.) was used to determine the ability of compounds of the invention to cross an artificial lipid membrane by passive diffusion. Test compounds were dissolved in DMSO (10 mM) and diluted 200-fold in buffer (pION Inc., pH 7.4) to provide 50 uM stock solutions. Buffer (150 μL) was added to a UV blank plate and stock solutions (150 μL) were transferred to a UV reference plate. The blank and reference spectrum were read using a spectrophotometer. Stock solutions (200 μL) were added to the donor plate of the PAMPA sandwich plate and an accept plate painted with GIT lipid (pION Inc, 5) was placed on top. Buffer (200 μL) was added to the acceptor plate and the PAMPA sandwich plate was incubated for 4 hours. Aliquots (150 μL) from the acceptor plate were added to a UV plate and read as acceptor spectrum. Aliquots (150 μL) of the donor solutions were added to a UV analysis plate and read as donor spectrum. The permeability coefficient of test compounds was calculated using PAMPA Explorer™ software (version 3.5.0.4) based on the AUC of the reference plate, the donor plate, and the acceptor plate.
The PAMPA permeability results (10^−6 cm/s) of representative compounds are reported as “+” (<0.1 10^−6 cm/s), “++” (0.1-2.0 10^−6 cm/s), “+++” (2.0-10.010^−6 cm/s) or “++++” (>10.0 10^−6 cm/s).
In general terms: The PAMPA barrier holds no transporters, so it reflects passive diffusion.

Where only a bound is given, the exact number is not on record here.

T1 sequence (Q15858 whole entry): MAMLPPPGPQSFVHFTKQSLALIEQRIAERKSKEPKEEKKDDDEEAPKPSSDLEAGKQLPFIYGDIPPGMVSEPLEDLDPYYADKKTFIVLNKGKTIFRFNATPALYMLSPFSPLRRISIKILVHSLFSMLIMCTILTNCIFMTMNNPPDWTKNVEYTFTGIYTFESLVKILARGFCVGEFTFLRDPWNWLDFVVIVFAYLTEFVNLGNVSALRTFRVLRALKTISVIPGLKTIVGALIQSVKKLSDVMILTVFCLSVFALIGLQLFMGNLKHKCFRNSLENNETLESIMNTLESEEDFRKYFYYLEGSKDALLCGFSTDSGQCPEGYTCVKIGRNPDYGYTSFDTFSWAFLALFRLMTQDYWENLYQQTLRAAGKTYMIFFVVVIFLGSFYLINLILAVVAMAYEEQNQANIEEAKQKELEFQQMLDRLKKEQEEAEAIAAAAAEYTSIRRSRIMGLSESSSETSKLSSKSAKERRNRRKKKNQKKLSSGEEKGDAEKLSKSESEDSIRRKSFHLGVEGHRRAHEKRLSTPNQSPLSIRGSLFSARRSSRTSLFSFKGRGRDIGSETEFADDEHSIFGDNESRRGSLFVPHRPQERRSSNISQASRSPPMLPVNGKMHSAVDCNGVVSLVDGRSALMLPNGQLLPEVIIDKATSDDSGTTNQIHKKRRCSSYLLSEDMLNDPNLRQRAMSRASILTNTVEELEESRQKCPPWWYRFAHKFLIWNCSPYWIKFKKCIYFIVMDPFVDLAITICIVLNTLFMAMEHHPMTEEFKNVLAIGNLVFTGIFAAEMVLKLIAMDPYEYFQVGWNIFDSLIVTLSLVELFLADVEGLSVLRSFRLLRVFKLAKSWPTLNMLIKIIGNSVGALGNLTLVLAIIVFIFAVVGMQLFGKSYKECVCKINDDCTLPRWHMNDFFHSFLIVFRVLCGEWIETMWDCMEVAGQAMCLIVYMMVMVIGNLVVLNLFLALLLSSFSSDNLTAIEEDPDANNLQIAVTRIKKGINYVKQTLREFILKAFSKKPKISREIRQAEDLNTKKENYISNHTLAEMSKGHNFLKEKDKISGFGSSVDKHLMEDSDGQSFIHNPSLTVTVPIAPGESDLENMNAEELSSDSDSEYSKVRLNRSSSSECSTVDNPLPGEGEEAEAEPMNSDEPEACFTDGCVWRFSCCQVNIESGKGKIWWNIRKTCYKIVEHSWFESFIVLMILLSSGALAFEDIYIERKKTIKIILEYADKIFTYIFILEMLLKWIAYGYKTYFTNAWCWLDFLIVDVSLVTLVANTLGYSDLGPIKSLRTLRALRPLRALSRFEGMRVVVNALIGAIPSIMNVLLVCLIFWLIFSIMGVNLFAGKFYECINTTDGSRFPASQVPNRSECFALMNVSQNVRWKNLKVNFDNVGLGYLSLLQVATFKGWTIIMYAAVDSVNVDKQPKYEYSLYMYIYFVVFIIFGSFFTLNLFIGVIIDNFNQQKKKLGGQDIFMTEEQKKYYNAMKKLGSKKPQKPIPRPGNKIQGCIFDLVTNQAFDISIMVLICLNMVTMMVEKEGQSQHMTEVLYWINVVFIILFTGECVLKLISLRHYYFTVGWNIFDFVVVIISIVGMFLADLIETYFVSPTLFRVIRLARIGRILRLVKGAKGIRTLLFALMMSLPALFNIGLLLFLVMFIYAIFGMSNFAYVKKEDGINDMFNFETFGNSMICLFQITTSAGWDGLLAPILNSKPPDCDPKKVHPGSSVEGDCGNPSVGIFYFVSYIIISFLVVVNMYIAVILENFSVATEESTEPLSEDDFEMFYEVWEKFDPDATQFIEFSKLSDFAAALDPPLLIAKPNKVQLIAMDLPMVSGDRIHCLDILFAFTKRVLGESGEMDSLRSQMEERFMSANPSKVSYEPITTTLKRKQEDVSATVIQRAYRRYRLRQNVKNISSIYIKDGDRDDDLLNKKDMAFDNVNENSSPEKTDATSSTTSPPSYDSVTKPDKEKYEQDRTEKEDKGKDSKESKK

For the compound `CCCN(CCC)C(=O)C1CCC[N+](CC(=O)Nc2c(C)cccc2C)(Cc2ccccc2)C1` (stereo not shown) [Compound 67A], at NaV1.7 [1], the IC50 is 1000 to 3000 nM.

For `CCC(C(=O)Nc1c(C)cccc1C)[N+]1(Cc2cccc(C#N)c2)CCCCC1` (stereo not shown) [Compound 14], the IC50 at NaV1.7 [1] lay in the range of 300 to 1000 nM. Still for that read-out and setting: the value for `CCC(C(=O)Nc1c(C)cccc1C)[N+]1(Cc2cccc(Cl)c2)CCCCC1` (stereo not shown) [Compound 11] was 300 to 1000 nM; that for `CCc1cccc(C[N+]2(C(CC)C(=O)Nc3c(C)cccc3C)CCCCC2)c1` (stereo not shown) [Compound 20] was 1000 to 3000 nM.

For `CCC(C(=O)Nc1c(C)cccc1C)[N+]1(Cc2cccc(OC)c2)CCCCC1` (stereo not shown) [Compound 23], the IC50 on NaV1.7 [1] lay within 300 to 1000 nM. Regarding `CCC(C(=O)Nc1c(C)cccc1C)[N+]1(Cc2cccc(OC)c2)CCCCC1` (stereo not shown) [Compound 23A, 1-(1-((2,6-dimethylphenyl)amino)-1-oxobutan-2-yl)-1-(3-methoxybenzyl) piperidin-1-ium bromide], at NaV1.7 [2], the inhibition at 10 µM lay within 70 to 95%. For the same compound, the “PAMPA (10^−6 cm/s)” value in data set [3] is “+ (“+” (<0.1 10^−6 cm/s))”. For `CCC(C(=O)Nc1c(C)cccc1C)[N+]1(Cc2cccc(C)c2)CCCCC1` (stereo not shown) [Compound 17A] the same measures were above 95% and “+ (“+” (<0.1 10^−6 cm/s))”. Take `CCC(C(=O)Nc1c(C)cccc1C)[N+]1(Cc2ccccc2C#N)CCCCC1` (stereo not shown) [Compound 15A]: the inhibition at 10 µM at NaV1.7 [2] was above 95%. For the same compound, in data set [3], the “PAMPA (10^−6 cm/s)” value is recorded as “+ (“+” (<0.1 10^−6 cm/s))”. For `CCC(C(=O)Nc1c(C)cc(C)cc1C)[N+]1(Cc2ccccc2)CCCCC1.[Br-]` (stereo not shown) [Compound 39A, 1-benzyl-1-(1-(mesitylamino)-1-oxobutan-2-yl) piperidin-1-ium bromide] the same measures were 70 to 95% and “+ (“+” (<0.1 10^−6 cm/s))”.

On to `CCC(C(=O)Nc1c(C)cccc1C)[N+]1(Cc2ccc(Cl)cc2)CCCCC1` (stereo not shown) [Compound 10A], for which the inhibition at 10 µM on NaV1.7 [2] lay within 70 to 95%. Further, the “PAMPA (10^−6 cm/s)” value in data set [3] was “+ (“+” (<0.1 10^−6 cm/s))”. Take `CCc1ccccc1C[N+]1(C(CC)C(=O)Nc2c(C)cccc2C)CCCCC1` (stereo not shown) [Compound 21A]: at NaV1.7 [2], the inhibition at 3 µM was above 90% and the inhibition at 10 µM is above 95%. The “PAMPA (10^−6 cm/s)” value in data set [3] is “+ (“+” (<0.1 10^−6 cm/s))”.

For `CCC(C(=O)Nc1c(C)cccc1C)[N+]1(Cc2ccccc2)CCCCCC1` (stereo not shown) [Compound 30], the IC50 at NaV1.7 [1] is below 300 nM. On the same count and under the same terms, with `Cc1cccc(C)c1NC(=O)C[N+]1(Cc2ccccc2)CCCCCC1` [Compound 3] the figure was 300 to 1000 nM.

As to `Cc1cccc(C)c1NC(=O)C[N+]1(Cc2ccccc2)CCCC1.[Br-]` [Compound 5A, 1-benzyl-1-(2-((2,6-dimethylphenyl)amino)-2-oxoethyl) pyrrolidin-1-ium bromide], at NaV1.7 [2], the inhibition at 3 µM was above 90% and the inhibition at 10 µM was in the range of 70 to 95%. For the same compound, the “PAMPA (10^−6 cm/s)” value in data set [3] is listed as “+ (“+” (<0.1 10^−6 cm/s))”. As to `CCC(C(=O)Nc1c(C)cccc1C)[N+]1(Cc2ccccc2C)CCCCC1` (stereo not shown) [Compound 18A], the inhibition at 10 µM at NaV1.7 [2] lay in the range of 70 to 95%. In data set [3], the “PAMPA (10^−6 cm/s)” value was “+ (“+” (<0.1 10^−6 cm/s))”.

As for `CCC(C(=O)Nc1c(C)cccc1C)[N+]1(Cc2cccc(O)c2)CCCCC1` (stereo not shown) [Compound 29], on NaV1.7 [1], the IC50 was below 300 nM. On to `CCC(C(=O)Nc1c(C)cccc1C)[N+]1(Cc2ccc(C)cc2)CCCCC1` (stereo not shown) [Compound 16A], for which the inhibition at 10 µM at NaV1.7 [2] was above 95%. Further, in data set [3], the “PAMPA (10^−6 cm/s)” value is “+ (“+” (<0.1 10^−6 cm/s))”.

In the case of `CCCCNC(=O)C1CCC[N+](CC(=O)Nc2c(C)cccc2C)(Cc2ccccc2)C1.[Br-]` (stereo not shown) [Compound 59A], on NaV1.7 [2], the inhibition at 3 µM is below 40% and the inhibition at 10 µM is 70 to 95%. In data set [3], the “PAMPA (10^−6 cm/s)” value is “+ (“+” (<0.1 10^−6 cm/s))”.
